SMILES strings stand for the structures. Calls of active or inactive are those of the source. No cut-off for these calls is given here.

In one data set the test system is DNA. Kind of data set: Inhibition of H2O2-induced Escherichia coli DH5alpha genomic DNA damage at 25 to 250 uL after 24 hrs by ethidium-bromide staining-based agarose gel electrophoresis. It counts as nucleic-acid assay. To be noted: Escherichia coli DH5[alpha].
Data set [1] in a line: Antioxidant activity assessed as H2O2 free radical scavenging activity at IC50 after 1 hr by UV spectrophotometric analysis relative to control. The class given is functional.
Data set [2] has as its target T1, Angiotensin-converting enzyme (Homo sapiens, UniProt P12821). Briefly: Inhibition of ACE (unknown origin) at IC50 using Hippuryl-L-Histidyl-L-Leucine as substrate after 60 mins by colorimetric method relative to control.
Data set [3] can be described thus: Antioxidant activity assessed as H2O2 free radical scavenging activity after 1 hr by UV spectrophotometric analysis. The class given is functional.
Data set [4] has as its target T1, Angiotensin-converting enzyme. Kind of data set: Inhibition of ACE (unknown origin) using Hippuryl-L-Histidyl-L-Leucine as substrate after 60 mins by colorimetric method.
In data set [5] the test system is MCF7. Kind of data set: Cytotoxicity against human MCF7 cells at IC50 after 24 to 72 hrs by MTT assay relative to control. The class given is functional.
The test system of data set [6] is MCF7. Briefly: Cytotoxicity against human MCF7 cells after 24 to 72 hrs by MTT assay. It counts as functional, cell-based.
The subject of the next data set is MCF10. Kind of data set: Cytotoxicity against human MCF10 cells at 10 to 150 ug/ml after 24 to 72 hrs by MTT assay. The class given is cell-based.
For data set [7], the system named is Blood. Kind of data set: Thrombolytic activity in human blood after 2 hrs relative to control. The class given is functional.
The test system of data set [8] is Blood. Briefly: Thrombolytic activity in human blood after 60 mins. It counts as functional, tissue-based.
Data set [9] deals with Blood. Kind of data set: Thrombolytic activity in human blood after 2 hrs. It counts as functional, tissue-based.
For the next data set, the system named is Erythrocyte. Briefly: Induction of membrane stabilization in human RBC assessed as reduction in hemolysis relative to control. It counts as functional. Details: scale not given: the % may be the effect or the level left.

T1 sequence (P12821 whole entry): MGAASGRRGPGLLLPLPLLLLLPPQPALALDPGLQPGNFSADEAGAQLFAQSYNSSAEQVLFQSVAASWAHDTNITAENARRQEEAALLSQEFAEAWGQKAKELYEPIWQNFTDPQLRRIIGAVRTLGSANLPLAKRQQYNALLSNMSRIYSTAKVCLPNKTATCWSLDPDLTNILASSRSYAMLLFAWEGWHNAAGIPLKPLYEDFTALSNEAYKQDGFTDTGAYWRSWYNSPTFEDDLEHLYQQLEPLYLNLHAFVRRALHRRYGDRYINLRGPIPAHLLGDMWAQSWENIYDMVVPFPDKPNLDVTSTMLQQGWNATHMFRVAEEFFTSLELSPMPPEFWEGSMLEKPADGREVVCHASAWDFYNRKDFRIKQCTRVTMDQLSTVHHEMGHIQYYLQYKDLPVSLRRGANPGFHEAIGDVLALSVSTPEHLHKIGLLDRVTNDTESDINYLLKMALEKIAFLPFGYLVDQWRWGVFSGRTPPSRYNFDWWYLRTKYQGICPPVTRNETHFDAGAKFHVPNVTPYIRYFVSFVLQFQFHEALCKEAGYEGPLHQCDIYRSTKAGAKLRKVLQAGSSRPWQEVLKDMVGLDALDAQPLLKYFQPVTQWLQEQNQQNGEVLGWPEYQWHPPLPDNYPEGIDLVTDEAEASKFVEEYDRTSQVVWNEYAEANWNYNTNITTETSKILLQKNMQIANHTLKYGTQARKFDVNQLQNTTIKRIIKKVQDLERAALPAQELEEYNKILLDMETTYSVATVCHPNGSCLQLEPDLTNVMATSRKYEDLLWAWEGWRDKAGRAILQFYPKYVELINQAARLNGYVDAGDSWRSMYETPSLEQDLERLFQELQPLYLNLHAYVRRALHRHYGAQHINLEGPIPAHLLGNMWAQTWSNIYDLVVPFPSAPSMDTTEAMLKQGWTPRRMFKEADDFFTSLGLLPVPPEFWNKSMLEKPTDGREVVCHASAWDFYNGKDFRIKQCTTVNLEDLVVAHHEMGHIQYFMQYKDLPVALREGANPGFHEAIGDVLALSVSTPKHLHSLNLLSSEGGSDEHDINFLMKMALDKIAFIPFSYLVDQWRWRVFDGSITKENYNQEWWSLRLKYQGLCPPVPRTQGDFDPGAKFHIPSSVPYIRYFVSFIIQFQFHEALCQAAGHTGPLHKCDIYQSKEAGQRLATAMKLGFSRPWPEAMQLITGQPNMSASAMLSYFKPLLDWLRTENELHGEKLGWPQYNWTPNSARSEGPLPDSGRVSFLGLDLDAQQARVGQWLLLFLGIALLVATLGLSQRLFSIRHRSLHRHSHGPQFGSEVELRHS

Take `CC(=O)N1C(=O)/C(=N\C(=S)NCc2cc3ccccc3cc2O)c2ccccc21`: the inhibition entry with DNA is “Active”. The Activity in data set [1] is 81.2%; in [3], “Dose-dependent effect”. In data set [2], this compound had an inhibition of 82.7%. For the same compound, the IC50 in [4] was determined as 10.7 nM.
In [2], `NCCCC[C@H](N[C@@H](CCc1ccccc1)C(=O)O)C(=O)N1CCC[C@H]1C(=O)O` had an inhibition of 89.1%.
Regarding `Cc1ccc(C(=O)N2C(=O)/C(=N\C(=S)NCc3cc4ccccc4cc3O)c3ccccc32)cc1`, the Activity in [1] is 83.1%; in [3], “Dose-dependent effect”. This compound also registered an inhibition in data set [2] of 65%. Further, the IC50 in [4] is 24.2 nM.
For `CN1C(=O)/C(=N\C(=S)NCc2cc3ccccc3cc2O)c2ccccc21`, the inhibition result in the data set on DNA is “inactive”. Also, the Activity was 74.1% in data set [1] and “Dose-dependent effect” in data set [3]. The same compound yielded an inhibition in [2] of 66.5%. In addition, in data set [4], half-maximal inhibition (IC50) was put at 22.3 nM.
For the compound `O=C1O[C@H]([C@@H](O)CO)C(O)=C1O`, the Activity in [1] turned out to be 90.1%.
With `CCCN1C(=O)/C(=N\C(=S)NCc2cc3ccccc3cc2O)c2ccccc21`, the Activity is 75.1% in data set [1] and “Dose-dependent effect” in [3]. In data set [2], this compound yielded an inhibition of 80.7%. The compound further displayed an IC50 in data set [4] of 11.8 nM.
Take `CC(=O)CN1C(=O)/C(=N\C(=S)NCc2cc3ccccc3cc2O)c2ccccc21`: the Activity is 68.5% in [1] and “Dose-dependent effect” in data set [3]. In addition, the inhibition in data set [2] was 24%. This compound had an IC50 in data set [4] of 112 nM.
As to `O=C1/C(=N\C(=S)NCc2cc3ccccc3cc2O)c2ccccc2N1CCBr`, the Activity in the data set on MCF7 [5] was 82.94%; in the data set with MCF10, “Non-Toxic”; in data set [1] it was 92.5%; with Blood [7], 83.5%; in data set [3] it was “Dose-dependent effect”. The IC50 in the data set with MCF7 [6] turned out to be 92 nM; in [4], 4.11 nM. The inhibition result in the data set on DNA is “Active”. The compound also had an inhibition in data set [2] of 90.5%. The outcome in the data set on Blood [8] was Active.
`O=C1/C(=N\C(=S)NCc2cc3ccccc3cc2O)c2ccccc2N1c1ccccc1Cl`: the Activity is 82.7% in data set [1] and “Dose-dependent effect” in data set [3]. In data set [2], the inhibition stood at 76.5%. Moreover, it took 15.1 nM to reach half-maximal inhibition in data set [4] (IC50).
For `O=C1/C(=N\C(=S)NCc2cc3ccccc3cc2O)c2ccccc2N1c1ccccc1`, the Activity was 80.8% in data set [1] and “Dose-dependent effect” in [3]. Moreover, in data set [2], the inhibition worked out at 69.2%. In addition, half-maximal inhibition in data set [4] (IC50) required 19 nM.
On to `COc1ccc(N2C(=O)/C(=N/C(=S)NCc3cc4ccccc4cc3O)c3ccccc32)cc1`, for which the results for the Activity in data set [1] and in [3] were 79.4% and “Dose-dependent effect”, respectively. In data set [2], the inhibition came out at 86.4%. In addition, in data set [4], the IC50 is 9.82 nM.
For `O=C1/C(=N\C(=S)NCc2cc3ccccc3cc2O)c2ccccc2N1C(=O)c1ccccc1`, the Activity with MCF7 [5] was 78.12%; in the data set with MCF10, “Non-Toxic”; in [1] it was 89.5%; in the data set with Blood [7] it was 83.5%; in data set [3] it was “Dose-dependent effect”. The values for the IC50 (in the data set on MCF7 [6]; in data set [4]) were 102 nM and 8.84 nM, respectively. For the same compound, in the data set on DNA, the inhibition result was “Active”. Also, in data set [2], the inhibition came to 87.3%.
Consider `O=C(O)CN1C(=O)/C(=N\C(=S)NCc2cc3ccccc3cc2O)c2ccccc21`, for which the Activity with MCF7 [5] was 89.02%; in the data set on MCF10 it was “Non-Toxic”; in [1] it was 98.1%; in the data set with Blood [7] it was 83.5%; in data set [3], “Dose-dependent effect”; in the data set on Erythrocyte it was 96%. The values for the IC50 (in the data set with MCF7 [6]; with Blood [9]; in data set [4]) were 82 nM, 35 nM and 2.85 nM, respectively. For the same compound, in the data set with DNA, the inhibition result is “Active”. The inhibition in data set [2] was 96.1%. Besides, the outcome in the data set with Blood [8] was Active.
`COc1ccc(CN2C(=O)/C(=N\C(=S)NCc3cc4ccccc4cc3O)c3ccccc32)cc1`: the inhibition entry in the data set with DNA was “Active”. Moreover, the results for the Activity (in [1]; in the data set on Blood [7]; in data set [3]) were 78%, 83.5% and “Dose-dependent effect”, respectively. The inhibition in data set [2] worked out at 88.5%. The compound also registered an IC50 in [4] of 7.64 nM.
`COc1cccc2c1C(=O)c1c(O)c3c(c(O)c1C2=O)C[C@@](O)(C(=O)CO)C[C@@H]3O[C@H]1C[C@H](N)[C@H](O)[C@H](C)O1` [DOXORUBICIN]: the Activity in the data set on MCF7 [5] stood at 78.42%.

For the origin of these results see ChEMBL document CHEMBL4130507, “Therapeutic investigations of novel indoxyl-based indolines: A drug target validation and Structure-Activity Relationship of angiotensin-converting enzyme inhibitors with cardiovascular regulation and thrombolytic potential” (Eur J Med Chem, 2017).
